# Test results: US20250051338A1, “TYK2 DEGRADERS AND USES THEREOF” (Kymera Therapeutics, Inc., priority 2021, published 2025)
# Key:
# Type in all cases: cell-based
# [1] = target: T1, TYK2 (Homo sapiens, UniProt P29597); assay: TYK2 degradation MSD assay in EBV-B cells; design: endogenous in cells; host or cells: EBV-B cells; details: 4 to 24 hours incubation, read-out: TYK2 MSD DC50 rating in EBV-B
# How it was run: (§1)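 Cells (0.4 million per well) were treated with a 9-point, 1:3 compound series from a top concentration of 1 to 10 μM for 4 to 24 hours at 37° C, then lysed in RIPA with protease/phosphatase inhibitors. Remaining TYK2 was quantified by sandwich MSD immunoassay; DC50 came from four-parameter nonlinear fits.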
# [2] = target: T1, TYK2; assay: TYK2 degradation MSD assay in OCI-LY10 cells; design: endogenous in cells; host or cells: EBV-B cells; details: 4 to 24 hours incubation, read-out: TYK2 MSD DC50 rating in OCI-LY10
# How it was run: as §1
# [3] = target: T1, TYK2; assay: TYK2 degradation MSD assay in human PBMC cells; design: endogenous in cells; host or cells: human PBMC; details: 4 to 24 hours incubation, read-out: TYK2 MSD DC50 rating in human PBMC
# How it was run: as §1
# T1 sequence (P29597 whole entry): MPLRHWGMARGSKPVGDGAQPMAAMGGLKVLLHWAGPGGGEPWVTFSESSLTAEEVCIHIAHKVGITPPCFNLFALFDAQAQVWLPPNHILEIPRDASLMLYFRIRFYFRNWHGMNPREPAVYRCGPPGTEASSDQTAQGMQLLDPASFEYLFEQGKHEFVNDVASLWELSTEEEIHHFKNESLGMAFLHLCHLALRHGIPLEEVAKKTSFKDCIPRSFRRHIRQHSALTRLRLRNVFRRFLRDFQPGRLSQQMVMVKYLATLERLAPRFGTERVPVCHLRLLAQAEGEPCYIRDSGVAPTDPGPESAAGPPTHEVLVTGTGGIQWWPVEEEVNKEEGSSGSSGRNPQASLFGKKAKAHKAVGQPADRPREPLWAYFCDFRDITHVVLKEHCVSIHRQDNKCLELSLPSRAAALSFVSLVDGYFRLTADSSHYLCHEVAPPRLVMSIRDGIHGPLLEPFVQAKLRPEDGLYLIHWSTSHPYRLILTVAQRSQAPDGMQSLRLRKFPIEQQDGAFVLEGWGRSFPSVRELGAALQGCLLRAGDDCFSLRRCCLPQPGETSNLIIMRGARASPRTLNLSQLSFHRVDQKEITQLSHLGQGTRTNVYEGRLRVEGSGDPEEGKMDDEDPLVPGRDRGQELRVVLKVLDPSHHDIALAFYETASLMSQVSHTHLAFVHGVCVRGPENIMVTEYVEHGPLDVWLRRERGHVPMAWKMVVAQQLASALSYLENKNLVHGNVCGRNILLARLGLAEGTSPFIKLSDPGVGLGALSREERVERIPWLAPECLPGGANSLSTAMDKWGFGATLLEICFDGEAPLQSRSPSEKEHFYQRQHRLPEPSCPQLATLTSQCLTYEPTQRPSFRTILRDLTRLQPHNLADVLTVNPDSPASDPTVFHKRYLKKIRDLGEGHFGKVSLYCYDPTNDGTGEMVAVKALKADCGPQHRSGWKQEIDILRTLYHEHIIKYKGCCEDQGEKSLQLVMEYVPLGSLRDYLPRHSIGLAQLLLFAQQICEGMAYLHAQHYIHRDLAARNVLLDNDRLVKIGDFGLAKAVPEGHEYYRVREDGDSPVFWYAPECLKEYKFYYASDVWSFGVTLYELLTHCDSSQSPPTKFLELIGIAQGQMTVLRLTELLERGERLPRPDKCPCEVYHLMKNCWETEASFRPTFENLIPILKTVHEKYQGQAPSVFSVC
Compound,DC50 [1],DC50 [2],DC50 [3]
CNc1cc(Nc2cccc(-c3ccc(CN4CC5(C4)CN(c4ccc(-c6ccc7c(c6)n(C)c(=O)n7C6CCC(=O)NC6=O)cc4)C5)cn3)c2)nn2c(C(=O)N[C@@H]3C[C@@H]3F)cnc12 (stereo partly drawn) [Example K522],> 100 nM,< 1 nM,> 100 nM
CNc1cc(Nc2cccc(CN3CCC4(CCCN(CCC5C=c6c(n(C7CCC(=O)NC7=O)c(=O)n6C)=CC5)C4)C3)c2)nn2c(C(=O)NC3CC3)cnc12 (stereo not drawn) [Example K582],> 100 nM,> 100 nM,> 100 nM
CNc1cc(N2CCc3c(-c4cc(N5CCN(c6cccc7c6n(C)c(=O)n7C6CCC(=O)NC6=O)CC5)ccn4)cccc32)nn2c(C(=O)N[C@@H]3C[C@@H]3F)cnc12 (stereo partly drawn) [Example K653],> 100 nM,> 100 nM,> 100 nM
CNc1cc(N2CCc3c(N4CCN(C5CCN(c6ccc7c(c6)n(C)c(=O)n7C6CCC(=O)NC6=O)CC5)CC4)cccc32)nn2c(C(=O)N[C@@H]3C[C@@H]3F)cnc12 (stereo partly drawn) [Example K645],> 100 nM,< 1 nM,> 100 nM
CNc1cc(Nc2cccn(-c3cc(C(=O)NCCOCCOCCc4cccc5c4n(C)c(=O)n5C4CCC(=O)NC4=O)ccn3)c2=O)nn2c(C(=O)N[C@@H]3C[C@@H]3F)cnc12 (stereo partly drawn) [Example K238],> 100 nM,> 100 nM,> 100 nM
CNc1cc(Nc2cccc(N3CCC(CN4CCC(C#Cc5cccc6c5n(C)c(=O)n6C5CCC(=O)NC5=O)CC4)CC3)c2)nn2c(C(=O)N[C@@H]3C[C@@H]3F)cnc12 (stereo partly drawn) [Example K465],> 100 nM,1 to 10 nM,> 100 nM
CNc1cc(-c2cnn(C3CCC(CN4CC5(CCN(c6ccc7c(c6)n(C)c(=O)n7C6CCC(=O)NC6=O)CC5)C4)CC3)c2)nn2c(C(=O)N[C@@H]3C[C@@H]3F)cnc12 (stereo partly drawn) [Example K363],> 100 nM,> 100 nM,< 1 nM
Cn1c(=O)n(C2CCC(=O)NC2=O)c2ccc(C3CCN(CCCNc4cc(Nc5cccn(-c6ccccn6)c5=O)nn5c(C(=O)N[C@@H]6C[C@@H]6F)cnc45)CC3)cc21 (stereo partly drawn) [Example K366],> 100 nM,> 100 nM,> 100 nM
Cn1c(=O)n(C2CCC(=O)NC2=O)c2cccc(C3CN(C4CCN(Cc5ccc(-c6cccc(Nc7ccc8ncc(C(=O)NC9CC9)n8n7)c6)nc5)CC4)C3)c21 (stereo not drawn) [Example K403],> 100 nM,> 100 nM,> 100 nM
CNc1cc(Nc2cccn(-c3cccc(C(=O)NCCOCCOCCOCCOCCc4cccc5c4n(C)c(=O)n5C4CCC(=O)NC4=O)c3)c2=O)nn2c(C(=O)N[C@@H]3C[C@@H]3F)cnc12 (stereo partly drawn) [Example K240],> 100 nM,> 100 nM,> 100 nM
Cn1c(=O)n(C2CCC(=O)NC2=O)c2ccc(-c3ccc(N4CCN(Cc5ccc(-c6cccc(Nc7ccc8ncc(C(=O)NC9CC9)n8n7)c6)nc5)CC4)cc3)cc21 (stereo not drawn) [Example K415],1 to 10 nM,> 100 nM,> 100 nM
CNc1cc(Nc2cccn(-c3ccc(C(=O)N(C)Cc4ccc(-c5ccc6c(c5)n(C)c(=O)n6C5CCC(=O)NC5=O)cn4)cn3)c2=O)nn2c(C(=O)N[C@@H]3C[C@@H]3F)cnc12 (stereo partly drawn) [Example K387],> 100 nM,> 100 nM,< 1 nM
CNc1cc(-c2ccc(N3CCC(CN4CC5(CCN(c6cccc7c6n(C)c(=O)n7C6CCC(=O)NC6=O)CC5)C4)CC3)cc2)nn2c(C(=O)N[C@@H]3C[C@@H]3F)cnc12 (mixture of isomers) [Example K533],> 100 nM,> 100 nM,> 100 nM
CNC(=O)c1cnc(Nc2ccc(CN(C)CCCOC3CC(c4ccc5c(c4)n(C)c(=O)n5C4CCC(=O)NC4=O)C3)cn2)cc1Nc1cccc(-c2ncc(F)cn2)c1OC (stereo not drawn) [Example K148],< 1 nM,> 100 nM,< 1 nM
CNc1cc(Nc2ccccc2C(=O)NCCCCCCCCc2ccc3c(c2)n(C)c(=O)n3C2CCC(=O)NC2=O)nn2c(C(=O)N[C@@H]3C[C@@H]3F)cnc12 (stereo partly drawn) [Example K256],> 100 nM,> 100 nM,< 1 nM
CNc1cc(Nc2cccn(-c3ccc(C(=O)N4CCC(c5ncc(-c6ccc7c(c6)n(C)c(=O)n7C6CCC(=O)NC6=O)cn5)CC4)cn3)c2=O)nn2c(C(=O)N[C@@H]3C[C@@H]3F)cnc12 (stereo partly drawn) [Example K385],< 1 nM,> 100 nM,< 1 nM
CNc1cc(Nc2cccn(-c3ccc(C(=O)N4CC5(CCN(c6cccc7c6n(C)c(=O)n7C6CCC(=O)NC6=O)CC5)C4)cn3)c2=O)nn2c(C(=O)N[C@@H]3C[C@@H]3F)cnc12 (stereo partly drawn) [Example K389],< 1 nM,< 1 nM,< 1 nM
CNc1cc(Nc2cccn(-c3cc(C(=O)NCCCCCCCCc4cccc5c4n(C)c(=O)n5C4CCC(=O)NC4=O)ccn3)c2=O)nn2c(C(=O)N[C@@H]3C[C@@H]3F)cnc12 (stereo partly drawn) [Example K232],> 100 nM,> 100 nM,1 to 10 nM
